Experimental data from ChEMBL document CHEMBL5647694, “Novel orally bioavailable EZH1/2 dual inhibitors with greater antitumor efficacy than an EZH2 selective inhibitor” (Cancer Sci, 2017).

Tests used:
[1] = target: CDK4/Cyclin D3 (Homo sapiens) (UniProt P11802+P30281); experiment: Inhibition of N-terminal GST-tagged full length human CDK4 (1 to 303 residues)/N-terminal GST-tagged human CyclinD3 (1 to 292 residues) expressed in baculovirus-infected Sf21 cells using DYRKtide-F as substrate at 1 uM in presence of ATP by Mobility shift assay
[2] = target: Sphingosine kinase 2 (Homo sapiens) (UniProt Q9NRA0); experiment: Inhibition of N-terminal GST-fused full length human SPHK2 (1 to 618 residues) expressed in baculovirus expression system using Sphingosine as substrate at 1 uM in presence of ATP by Mobility shift assay
[3] = target: Casein kinase I isoform alpha (Homo sapiens) (UniProt P48729); experiment: Inhibition of N-terminal GST-fused full length human CK1alpha (1 to 337 residues) expressed in baculovirus expression system using CKtide as substrate at 1 uM in presence of ATP by Mobility shift assay
[4] = target: TRAF2 and NCK-interacting protein kinase (Homo sapiens) (UniProt Q9UKE5); experiment: Inhibition of N-terminal GST-fused human TNIK catalytic domain (1 to 314 residues) expressed in baculovirus expression system using Moesin-derived peptide as substrate at 1 uM in presence of ATP by Mobility shift assay
[5] = target: Dual specificity protein kinase CLK2 (Homo sapiens) (UniProt P49760); experiment: Inhibition of N-terminal GST-fused full length human CLK2 (1 to 499 residues) expressed in baculovirus expression system using DYRKtide-F as substrate at 1 uM in presence of ATP by Mobility shift assay
[6] = target: CDK9/cyclin T1 (Homo sapiens) (UniProt O60563+P50750); experiment: Inhibition of N-terminal GST-fused full length human CDK9 (1 to 372 residues)/human His-CyclinT1 (1 to 726 residues) expressed in baculovirus expression system using CDK9 substrate at 1 uM in presence of ATP by Mobility shift assay
[7] = target: Casein kinase II alpha'/ beta (Homo sapiens) (UniProt P67870+P19784); experiment: Inhibition of N-terminal GST-fused full length human CK2alpha2 (1 to 350 residues)/His-tagged human CK2beta (1 to 215 residues ) expressed in baculovirus expression system using CK2tide as substrate at 1 uM in presence of ATP by Mobility shift assay
[8] = target: Calcium/calmodulin-dependent protein kinase type II subunit alpha (Homo sapiens) (UniProt Q9UQM7); experiment: Inhibition of N-terminal GST-fused full length human CAMK2a (1 to 478 residues) expressed in baculovirus-infected Sf21 cells using GS peptide as substrate at 1 uM in presence of ATP by Mobility shift assay
[9] = target: Tyrosine-protein kinase receptor UFO (Homo sapiens) (UniProt P30530); experiment: Inhibition of N-terminal GST-fused human AXL cytoplasmic domain (464 to 885 residues) expressed in baculovirus-infected Sf21 cells using CSKtide as substrate at 1 uM in presence of ATP by Mobility shift assay
[10] = target: Cytoplasmic tyrosine-protein kinase BMX (Homo sapiens) (UniProt P51813); experiment: Inhibition of N-terminal GST-fused full length human BMX ( 1 to 675 residues) expressed in baculovirus-infected Sf21 cells using Srctide as substrate at 1 uM in presence of ATP by Mobility shift assay
[11] = target: Dual specificity protein kinase CLK1 (Homo sapiens) (UniProt P49759); experiment: Inhibition of N-terminal GST fused human CLK1 catalytic domain (129 to 484 residues) expressed in baculovirus expression system using DYRKtide-F as substrate at 1 uM in presence of ATP by Mobility shift assay
[12] = target: Activated CDC42 kinase 1 (Homo sapiens) (UniProt Q07912); experiment: Inhibition of N-terminal GST-fused wild type human ACK catalytic domain (110 to 476 residues) expressed in baculovirus-infected Sf21 cells using WASP peptide as substrate at 1 uM in presence of ATP by Mobility shift assay
[13] = target: STE20-like serine/threonine-protein kinase (Homo sapiens) (UniProt Q9H2G2); experiment: Inhibition of N-terminal GST-fused full length human SLK (1 to 1152 residues) expressed in baculovirus expression system using Moesin-derived peptide as substrate at 1 uM in presence of ATP by Mobility shift assay
[14] = target: Tyrosine-protein kinase HCK (Homo sapiens) (UniProt P08631); experiment: Inhibition of N-terminal GST-fused truncated human HCK (25 to 526 residues) expressed in baculovirus-infected Sf21 cells using Srctide as substrate at 1 uM in presence of ATP by Mobility shift assay
[15] = target: Protein kinase C beta type (Homo sapiens) (UniProt P05771); experiment: Inhibition of N-terminal GST-fused human full length PKC-beta2 (1 to 673 residues ) expressed in baculovirus expression system using PKC peptide as substrate at 1 uM in presence of ATP by Mobility shift assay
[16] = target: Ephrin type-B receptor 3 (Homo sapiens) (UniProt P54753); experiment: Inhibition of N-terminal GST-fused human EPHB3 cytoplasmic domain (596 to 998 residues) expressed in baculovirus-infected Sf21 cells using Blk/Lyntide as substrate at 1 uM in presence of ATP by Mobility shift assay
[17] = target: Vascular endothelial growth factor receptor 2 (Homo sapiens) (UniProt P35968); experiment: Inhibition of N-terminal GST-tagged human KDR cytoplasmic domain (790 to 1356 residues) expressed in baculovirus-infected Sf21 cells using CSKtide as substrate at 1 uM in presence of ATP by Mobility shift assay
[18] = target: Serine/threonine-protein kinase Nek1 (Homo sapiens) (UniProt Q96PY6); experiment: Inhibition of N-terminal GST-fused human NEK1 catalytic domain (1 to 505 residues) expressed in baculovirus expression system using CDK7 peptide as substrate at 1 uM in presence of ATP by Mobility shift assay
[19] = target: Serine/threonine-protein kinase Nek2 (Homo sapiens) (UniProt P51955); experiment: Inhibition of N-terminal His-tagged full length human NEK2 (1 to 445 residues) expressed in baculovirus expression system using CDK7 peptide as substrate at 1 uM in presence of ATP by Mobility shift assay
[20] = target: Rho-associated protein kinase 1 (Homo sapiens) (UniProt Q13464); experiment: Inhibition of N-terminal GST-fused human ROCK1 catalytic domain (1 to 477 residues) expressed in baculovirus expression system using LIMKtide as substrate at 1 uM in presence of ATP by Mobility shift assay
[21] = target: Ribosomal protein S6 kinase beta-1 (Homo sapiens) (UniProt P23443); experiment: Inhibition of N-terminal GST-fused human p70S6K catalytic domain (1 to 421 residues) expressed in baculovirus expression system using S6K2 peptide as substrate at 1 uM in presence of ATP by Mobility shift assay
[22] = target: Tyrosine-protein kinase ZAP-70 (Homo sapiens) (UniProt P43403); experiment: Inhibition of N-terminal GST-tagged full length human ZAP70 (1 to 619 residues) expressed in baculovirus-infected Sf21 cells using Blk/Lyntide as substrate at 1 uM in presence of ATP by Mobility shift assay

Compound	inhibition [1] [%]	inhibition [2] [%]	inhibition [3] [%]	inhibition [4] [%]	inhibition [5] [%]	inhibition [6] [%]	inhibition [7] [%]	inhibition [8] [%]	inhibition [9] [%]	inhibition [10] [%]	inhibition [11] [%]	inhibition [12] [%]	inhibition [13] [%]	inhibition [14] [%]	inhibition [15] [%]	inhibition [16] [%]	inhibition [17] [%]	inhibition [18] [%]	inhibition [19] [%]	inhibition [20] [%]	other results
Cc1cc(C)c(CNC(=O)c2cc(Cl)c3c(c2C)O[C@@](C)([C@H]2CC[C@H](N(C)C)CC2)O3)c(=O)[nH]1 [VALEMETOSTAT]	2.1	8	5.2	0.3	2.5	4.3	-4.7	-2.8	-3.5	-3.1	1.7	-1.2	3.3	-4.2	-1.1	-5.9	-3	-7	1.4	-2.5	inhibition [21]: 1.5%; inhibition [22]: -5.4%
Cc1cc(C)c(CNC(=O)c2cc(Br)c3c(c2C)O[C@@](C)([C@H]2CC[C@H](N(C)C)CC2)O3)c(=O)[nH]1	-4.5	12.7	5.2	1.1	-1.6	-5.3	-5.5	-1.1	-0.5	-2.2	-3.3	0.2	1.6	-2.5	3.2	-4.4	-1.1	-7	1.5	3	inhibition [21]: 4.3%; inhibition [22]: -6.2%
